This passage reports IC50 results from patent US10155765B2, “Carboxamide inhibitors of IRAK4 activity” (MERCK SHARP & DOHME CORP., priority 2015, dated 2018).

Where a name gives a salt, the structure may show the parent alone.

The target in the assay is IRAK4 (Homo sapiens (Human), UniProt Q9NWZ3). The assay is described as follows: IRAK4 Kinase Assay (IMAP fluorescence polarization). The format is biochemical. The note with it: GST tagged IRAK4, 100 μM ATP, 30 minutes at 25° C., IMAP FP. The text has this: Other assays are known in the literature and could be readily performed by those of skill in the art.
IRAK4, sequence (Q9NWZ3 whole entry): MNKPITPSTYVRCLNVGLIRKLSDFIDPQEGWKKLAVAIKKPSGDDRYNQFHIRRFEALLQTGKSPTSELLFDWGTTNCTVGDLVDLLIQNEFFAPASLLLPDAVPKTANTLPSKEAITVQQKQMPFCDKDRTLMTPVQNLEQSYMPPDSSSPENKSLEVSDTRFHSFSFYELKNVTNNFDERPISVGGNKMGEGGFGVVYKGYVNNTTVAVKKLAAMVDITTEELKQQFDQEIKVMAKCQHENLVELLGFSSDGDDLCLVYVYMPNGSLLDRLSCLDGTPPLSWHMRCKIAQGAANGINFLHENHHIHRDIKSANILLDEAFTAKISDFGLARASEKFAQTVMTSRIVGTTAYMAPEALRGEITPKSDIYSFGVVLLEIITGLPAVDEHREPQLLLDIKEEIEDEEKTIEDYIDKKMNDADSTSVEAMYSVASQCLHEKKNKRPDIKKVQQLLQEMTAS
The reaction is initiated by the addition of ATP.
For orientation: Polarisation of emitted light reports the rotation of a fluorescent probe.
With `NC(=O)Cn1cc(NC(=O)c2cnn3ccc(N[C@@H]4CCCC[C@@H]4N)nc23)c(C(N)=O)n1` [Example 32, 5-{[(1R,2S)-2-Aminocyclohexyl]amino}-N-[1-(2-amino-2-oxoethyl)-3-carbamoyl-1H-pyrazol-4-yl]pyrazolo[1,5-a]pyrimidine-3-carboxamide], half-maximal inhibition (IC50) required 0.003 µM. On to `CNC(=O)c1nn(C)cc1NC(=O)c1ccc2cnc(NCCN)nn12` [Example 60, 2-[(2-aminoethyl)amino]-N-[1-methyl-3-(methylcarbamoyl)-1H-pyrazol-4-yl]pyrrolo[2,1-f][1,2,4]triazine-7-carboxamide trifluoroacetate], for which the IC50 (commonly the concentration that gives 50% inhibition) is 0.003 µM. The result for `NCCNc1ccn2ncc(C(=O)Nc3cn(-c4cccnc4)nc3C(N)=O)c2n1` [Example 11, 5-[(2-aminoethyl)amino]-N-(3-carbamoyl-1-pyridin-3-yl-1H-pyrazol-4-yl)pyrazolo[1,5-a]pyrimidine-3-carboxamide] reads 0.0007 µM; that for `Cn1cc(NC(=O)c2cnn3ccc(N[C@H]4CCS(=O)(=O)C[C@H]4N)nc23)c(C(N)=O)n1` (relative stereo) [Example 4, 5-{[cis-3-amino-1,1-dioxidotetrahydro-2H-thiopyran-4-yl]amino}-N-(3-carbamoyl-1-methyl-1H-pyrazol-4-yl)pyrazolo[1,5-a]pyrimidine-3-carboxamide trifluoroacetate], 0.005 µM; that for `CNC(=O)c1nn(CCO)cc1NC(=O)c1ccc2cnc(N[C@@H]3CCCC[C@@H]3N)nn12` [Example 65, 2-{[(1R,2S)-2-aminocyclohexyl]amino}-N-[1-(2-hydroxyethyl)-3-(methylcarbamoyl)-1H-pyrazol-4-yl]pyrrolo[2,1-f][1,2,4]triazine-7-carboxamide trifluoroacetate], 0.063 µM.

Consider `NC(=O)c1nn(C2CCNCC2)cc1NC(=O)c1cnn2cccnc12` [Example 47, N-(3-carbamoyl-1-piperidin-4-yl-1H-pyrazol-4-yl)pyrazolo[1,5-a]pyrimidine-3-carboxamide hydrochloride], for which the IC50 came to 0.47 µM. `Cn1cc(NC(=O)c2cnn3ccc(N[C@@H]4CCCC(F)(F)[C@@H]4N)nc23)c(C(N)=O)n1` [Example 3, 5-{[(1R,2R)-2-amino-3,3-difluorocyclohexyl]amino}-N-(3-carbamoyl-1-methyl-1H-pyrazol-4-yl)pyrazolo[1,5-a]pyrimidine-3-carboxamide trifluoroacetate] came in with an IC50 of 0.032 µM. Regarding `NC(=O)c1nn(-c2cccnc2)cc1NC(=O)c1cnn2ccc(N3CCNCC3)nc12` [Example 36, N-(3-carbamoyl-1-pyridin-3-yl-1H-pyrazol-4-yl)-5-piperazin-1-ylpyrazolo[1,5-a]pyrimidine-3-carboxamide trifluoroacetate], the IC50 turned out to be 0.033 µM. The result for `Cn1cc(NC(=O)c2ccc3cnc(N[C@@H]4CCCC[C@@H]4N)nn23)c(C(N)=O)n1` [Example 61, 2-{[(1R,2S)-2-aminocyclohexyl]amino}-N-(3-carbamoyl-1-methyl-1H-pyrazol-4-yl)pyrrolo[2,1-f][1,2,41triazine-7-carboxamide trifluoroacetate] reads 0.0007 µM. With `CCn1cc(NC(=O)c2cnn3ccc(N[C@@H]4CCCC[C@@H]4N)nc23)c(C(N)=O)n1` [Example 21, 5-{[(1R,2S)-2-Aminocyclohexyl]amino}-N-(3-carbamoyl-1-ethyl-1H-pyrazol-4-yl)pyrazolo[1,5-a]pyrimidine-3-carboxamide], the IC50 is 0.0006 µM. In turn, `NC(=O)c1nn(CCO)cc1NC(=O)c1cnn2ccc(N[C@@H]3CCCC[C@@H]3N)nc12` [Example 23, 5-{[(1R,2S)-2-aminocyclohexyl]amino}-N-[3-carbamoyl-1-(2-hydroxyethyl)-1H-pyrazol-4-yl]pyrazolo[1,5-a]pyrimidine-3-carboxamide trifluoroacetate] yielded an IC50 of 0.001 µM. With `Cn1cc(NC(=O)c2cnn3ccc(N[C@@H]4CCOC[C@@H]4N)nc23)c(C(N)=O)n1` [Example 2, 5-{[(3R,4R)-3-aminotetrahydro-2H-pyran-4-yl]amino}-N-(3-carbamoyl-1-methyl-1H-pyrazol-4-yl)pyrazolo[1,5-a]pyrimidine-3-carboxamide trifluoroacetate], it took 0.0006 µM to reach half-maximal inhibition (IC50). Consider `Cn1cc(NC(=O)c2cnn3ccc(NC4CCCCC4)nc23)c(C(N)=O)n1` [Example 26, N-(3-carbamoyl-1-methyl-1H-pyrazol-4-yl)-5-(cyclohexylamino)pyrazolo[1,5-a]pyrimidine-3-carboxamide trifluoroacetate], for which the IC50 was 0.18 µM. The compound `CC(C)n1cc(NC(=O)c2cnn3ccc(N[C@@H]4CCCC[C@@H]4N)nc23)c(C(N)=O)n1` [Example 22, 5-{[(1R,2S)-2-aminocyclohexyl]amino}-N-[3-carbamoyl-1-(1-methylethyl)-1H-pyrazol-4-yl]pyrazolo[1,5-a]pyrimidine-3-carboxamide trifluoroacetate] yielded an IC50 of 0.001 µM. Compound `Cn1cc(NC(=O)c2cnn3ccc(NC4CCCNC4)nc23)c(C(N)=O)n1` (stereo not drawn) [Example 15, N-(3-carbamoyl-1-methyl-1H-pyrazol-4-yl)-5-(piperidin-3-ylamino)pyrazolo[1,5-a]pyrimidine-3-carboxamide hydrochloride] returned an IC50 of 0.033 µM.

`NC(=O)c1n[nH]cc1NC(=O)c1cnn2cccnc12` [Example 53, N-(3-carbamoyl-1H-pyrazol-4-yl)pyrazolo[1,5-a]pyrimidine-3-carboxamide trifluoroacetate] came in with an IC50 of 0.7 µM. `Cn1cc(NC(=O)c2cnn3ccc(NC4CCCCC4O)nc23)c(C(N)=O)n1` (stereo not drawn) [Example 27, N-(3-carbamoyl-1-methyl-1H-pyrazol-4-yl)-5-[(2-hydroxycyclohexyl)amino]pyrazolo[1,5-a]pyrimidine-3-carboxamide] showed an IC50 of 0.21 µM.

`CN1CCCC(n2cc(NC(=O)c3cnn4ccc(N[C@H]5CCCC[C@H]5N)nc34)c(C(N)=O)n2)C1` (relative stereo) [Example 10, 5-{[cis-2-aminocyclohexyl]amino}-N-[3-carbamoyl-1-(1-methylpiperidin-3-yl)-1H-pyrazol-4-yl]pyrazolo[1,5-a]pyrimidine-3-carboxamide trifluoroacetate]: the IC50 is 0.025 µM.

For `COCCn1cc(NC(=O)c2cnn3ccc(N[C@@H]4CCCC[C@@H]4N)nc23)c(C(N)=O)n1` [Example 24, 5-{[(1R,2S)-2-aminocyclohexyl]amino}-N-[3-carbamoyl-1-(2-methoxyethyl)-1H-pyrazol-4-yl]pyrazolo[1,5-a]pyrimidine-3-carboxamide], inhibition was half-maximal at 0.003 µM (IC50). Turning to `NC(=O)c1ncccc1NC(=O)c1cnn2cccnc12` [Example 41, N-(2-Carbamoylpyridin-3-yl)pyrazolo[1,5-a]pyrimidine-3-carboxamide], half-maximal inhibition (IC50) required 4.4 µM. Compound `NC(=O)c1ccncc1NC(=O)c1cnn2cccnc12` [Example 45, N-(4-carbamoylpyridin-3-yl)pyrazolo[1,5-a]pyrimidine-3-carboxamide hydrochloride] returned an IC50 of 8.1 µM.

`NC(=O)c1cc(Br)ccc1NC(=O)c1cnn2cccnc12` [Example 55, N-(4-bromo-2-carbamoylphenyl)pyrazolo[1,5-a]pyrimidine-3-carboxamide hydrochloride]: the IC50 was > 5 µM. The result for `Cn1cc(NC(=O)c2ccc3cccnn23)c(C(N)=O)n1` [Example 43, N-(3-carbamoyl-1-methyl-1H-pyrazol-4-yl)pyrrolo[1,2-b]pyridazine-7-carboxamide trifluoroacetate] reads 0.027 µM; that for `CS(=O)(=O)N1CCCC(n2cc(NC(=O)c3cnn4ccc(N[C@H]5CCCC[C@H]5N)nc34)c(C(N)=O)n2)C1` (relative stereo) [Example 20, 5-{[cis-2-aminocyclohexyl]amino}-N-{3-carbamoyl-1-[1-(methylsulfonyl)piperidin-3-yl]-1H-pyrazol-4-yl}pyrazolo[1,5-a]pyrimidine-3-carboxamide trifluoroacetate], 0.004 µM; that for `CS(=O)(=O)N1CCC(n2cc(NC(=O)c3cnn4ccc(N[C@H]5CCCC[C@H]5N)nc34)c(C(N)=O)n2)CC1` (relative stereo) [Example 18, 5-{[cis-2-Aminocyclohexyl]amino}-N-{3-carbamoyl-1-[1-(methylsulfonyl)piperidin-4-yl]-1H-pyrazol-4-yl}pyrazolo[1,5-a]pyrimidine-3-carboxamide], 0.002 µM. Regarding `Cn1cc(NC(=O)c2cnn3ccc(NC4CCNC4)nc23)c(C(N)=O)n1` (stereo not drawn) [Example 14, N-(3-carbamoyl-1-methyl-1H-pyrazol-4-yl)-5-(pyrrolidin-3-ylamino)pyrazolo[1,5-a]pyrimidine-3-carboxamide hydrochloride], the IC50 is 0.12 µM. In turn, `Cn1cc(NC(=O)c2cnn3ccc(N4CCNC(=O)C4)nc23)c(C(N)=O)n1` [Example 38, N-(3-Carbamoyl-1-methyl-1H-pyrazol-4-yl)-5-(3-oxopiperazin-1-yl)pyrazolo[1,5-a]pyrimidine-3-carboxamide] had an IC50 of 0.4 µM. The compound `NC(=O)c1nn(-c2ccncc2)cc1NC(=O)c1cnn2ccc(N3CCNCC3)nc12` [Example 34, N-(3-carbamoyl-1-pyridin-4-yl-1H-pyrazol-4-yl)-5-piperazin-1-ylpyrazolo[1,5-a]pyrimidine-3-carboxamide trifluoroacetate] registered an IC50 of 0.025 µM. `CS(=O)(=O)N1CCC(n2cc(NC(=O)c3cnn4cccnc34)c(C(N)=O)n2)CC1` [Example 48, N-{3-carbamoyl-1-[1-(methylsulfonyl)piperidin-4-yl]-1H-pyrazol-4-yl}pyrazolo[1,5-a]pyrimidine-3-carboxamide] yielded an IC50 of 0.65 µM. Take `CN1CCCC(Cn2cc(NC(=O)c3cnn4ccc(N[C@@H]5CCCC[C@@H]5N)nc34)c(C(N)=O)n2)C1` (stereo partly drawn) [Example 25, 5-{[(1R,2S)-2-aminocyclohexyl]amino}-N-{3-carbamoyl-1-[(1-methylpiperidin-3-yl)methyl]-1H-pyrazol-4-yl}pyrazolo[1,5-a]pyrimidine-3-carboxamide trifluoroacetate]: the midpoint of inhibition, the IC50, lay at 0.002 µM.
